Numbered stars: 1 amine (or outer) side, 2 acyl side, 3 side chain; on linkers, the order of the positions; unused ones are H or OH. Bridge positions count the residues as written; N and C are the ends. Square brackets hold non-standard residues; d marks the D form. Peptide text beside a SMILES is read from it. * marks the point of attachment. X2 = O=C([C@@H](Cc1ccccc1)N(CC(CO)(CO)CO)[*:1])[*:2]; 2Nal = N[C@@H](Cc1ccc2ccccc2c1)C(=O)O; X3 = O=C(CN(C(CO)(CO)CO)[*:1])[*:2]; X4 = O=C(CN1CCN(CCO)CC1)*
Key:
[1] = test system: stimulated growth hormone release; test: Growth Hormone (GH) Inhibition Assay in rats (D-Ala2-GRF stimulated GH); format: in vivo, male Sprague Dawley rats; details: s.c.; for Inhibition of stimulated growth hormone release (percentile control): 25 μg/kg
Description: Groups of five male Sprague Dawley rats (each having a weight between 250-300 g) were injected s.c. with a somatostatin derivative or saline. Thirty minutes prior to the selected post-drug time periods shown in table II (2 hours, 4 hours, 6 hours, 8 hours), rats were anesthetized with Nembutal i.p. (50 mg/kg). Fifteen minutes following anesthesia, an aliquot of blood was withdrawn by cardiac puncture over heparin to measure basal GH. Additionally, a s.c. injection of D-Ala^2 -GRF (10 μg/kg) was given. Fifteen minutes later, blood was withdrawn to quantitate the stimulated GH, which was measured in plasma using a radioimmunoassay supplied by NIADDKD. The percentage of GH inhibition was calculated from differences obtained between basal and stimulated GH values.
The efficacy of D-Phe-c[Cys-Tyr-D-Trp-Lys-Thr-Cys]-Nal-NH2 (SEQ ID NO. 113) (BIM-23060) in inhibiting growth hormone in rats is compared with other somatostatin derivatives (BIM-23167, BIM-23179, and BIM-23181) of the invention.
Additional experiments were conducted on D-Phe-c[Cys-Tyr-D-Trp-Lys-Abu-Cys]-Thr-NH2, (SEQ ID NO. 112) a somatostatin analog, and BIM-23190, BIM-23195 and BIM-23197, to determine the ED50 (i.e., the concentration of each compound required to inhibit fifty percent of growth hormone release after a specified time) of the respective compound. Experiments were conducted at a dose range of between 25 μg/kg and 0.25 μg/kg.

[2] = test system: AR42J rat pancreas tumor cells; test: Antiproliferative assay on AR42J cells; format: cell-based; details: Concentration 100 nM, AR42J Rat Pancreas Tumor Cells after 8 days
Description: The purified somatostatin analogs described above were also tested for activity against rapidly proliferating cells.
^1 Concentration 100 nM, AR42J Rat Pancreas Tumor Cells after 8 days.

somatostatin receptor = target: T1, somatostatin receptor (Rattus norvegicus, UniProt P30680); test: Somatostatin binding assay: in vitro inhibition of binding of [125I-Tyr11]SRIF-14 to rat AR42J pancreas membranes; details: inhibition of [125I-Tyr11]SRIF-14 binding, read-out: IC50, in vitro binding affinity
T1 construct: SRIF-14 to rat AR42J pancreas membranes; endogenous in cells; host or cells: rat AR42J pancreatic cells (membrane preparation)
T1 sequence (P30680 whole entry): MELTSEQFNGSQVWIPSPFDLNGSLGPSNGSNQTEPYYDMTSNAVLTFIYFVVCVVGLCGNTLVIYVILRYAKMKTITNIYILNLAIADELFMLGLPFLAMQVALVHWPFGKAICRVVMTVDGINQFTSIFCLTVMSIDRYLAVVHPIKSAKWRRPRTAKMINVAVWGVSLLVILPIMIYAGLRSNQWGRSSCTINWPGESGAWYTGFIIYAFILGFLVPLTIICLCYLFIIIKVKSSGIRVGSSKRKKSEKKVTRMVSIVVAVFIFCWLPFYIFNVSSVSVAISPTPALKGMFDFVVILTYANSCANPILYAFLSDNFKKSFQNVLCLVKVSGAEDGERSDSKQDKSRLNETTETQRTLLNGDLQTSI

CC[C@@H]1NC(=O)[C@H](CCCCN)NC(=O)[C@@H](Cc2c[nH]c3ccccc23)NC(=O)[C@H](Cc2ccc(O)cc2)NC(=O)[C@@H](NC(=O)[C@H](N)Cc2ccccc2)CSSC[C@@H](C(=O)N[C@H](C(N)=O)[C@@H](C)O)NC1=O [BIM-23023, D-Phe-c[Cys-Tyr-D-Trp-Lys-Abu-Cys]-Thr-NH2, reference compound]
ED50, inhibition of stimulated growth hormone release ([1]; 2 Hours): 0.48 µg/kg
ED50, inhibition of stimulated growth hormone release ([1]; 4 Hours): 1.11 µg/kg
ED50, inhibition of stimulated growth hormone release ([1]; 6 Hours): 2.26 µg/kg
ED50, inhibition of stimulated growth hormone release ([1]; 8 Hours): 4.32 µg/kg

CC(=O)OCC(COC(C)=O)(COC(C)=O)NC(=O)CCC(=O)N[C@H](Cc1ccc2ccccc2c1)C(=O)N[C@H]1CSSC[C@@H](C(=O)N[C@H](C(N)=O)[C@@H](C)O)NC(=O)[C@H](C(C)C)NC(=O)[C@H](CCCCN)NC(=O)[C@@H](Cc2c[nH]c3ccccc23)NC(=O)[C@H](Cc2ccc(O)cc2)NC1=O [BIM-23107, (AcO-CH2)3 -C-NH-CO-(CH2)2 -CO-D-Nal-c[Cys-Tyr-D-Trp-Lys-Val-Cys]-Thr-NH2]
Cell growth (percent of control) [2]: 67.5% of control

CC(C)[C@@H]1NC(=O)[C@H](CCCCN)NC(=O)[C@@H](Cc2c[nH]c3ccccc23)NC(=O)[C@H](Cc2ccc(O)cc2)NC(=O)[C@@H](NC(=O)[C@@H](Cc2ccc3ccccc3c2)NC(=O)COC2=C(O)C(=O)O[C@@H]2[C@@H](O)CO)CSSC[C@@H](C(=O)N[C@H](C(N)=O)[C@@H](C)O)NC1=O [BIM-23135]
Cell growth (percent of control) [2]: 62.9% of control

CC(C)[C@@H]1NC(=O)[C@H](CCCCN)NC(=O)[C@@H](Cc2c[nH]c3ccccc23)NC(=O)[C@H](Cc2ccc(O)cc2)NC(=O)[C@@H](NC(=O)[C@@H](Cc2ccc3ccccc3c2)NC(=O)CCC(=O)NC(CO)(CO)CO)CSSC[C@@H](C(=O)N[C@H](C(N)=O)[C@@H](C)O)NC1=O [BIM-23158, (HO-CH2)3 -C-NH-CO-(CH2)2 -CO-D-Nal-c[Cys-Tyr-D-Trp-Lys-Val-Cys]-Thr-NH2]
IC50 (somatostatin receptor): 330 pM

CC[C@@H]1NC(=O)[C@H](CCCCN)NC(=O)[C@@H](Cc2c[nH]c3ccccc23)NC(=O)[C@H](Cc2ccc(O)cc2)NC(=O)[C@@H](NC(=O)[C@@H](Cc2ccccc2)NC(=O)CCC(=O)NC(CO)(CO)CO)CSSC[C@@H](C(=O)N[C@H](C(N)=O)[C@@H](C)O)NC1=O [BIM-23173, (HO-CH2)3 -C-NH-CO-(CH2)2 -CO-D-Phe-c[Cys-Tyr-D-Trp-Lys-Abu-Cys]-Thr-NH2]
IC50 (somatostatin receptor): 110 pM

C[C@@H](O)[C@@H]1NC(=O)[C@H](CCCCN)NC(=O)[C@@H](Cc2c[nH]c3ccccc23)NC(=O)[C@H](Cc2ccc(O)cc2)NC(=O)[C@@H](NC(=O)[C@@H](Cc2ccccc2)NC(=O)CNC(CO)(CO)CO)CSSC[C@@H](C(=O)N[C@@H](Cc2ccc3ccccc3c2)C(N)=O)NC1=O [BIM-23179, (HO-CH2)3 -C-NH-CH2 -CO-D-Phe-c[Cys-Tyr-D-Trp-Lys-Thr-Cys]-Nal-NH2] (H-[X3][dF]CY[dW]KTC[2Nal]-NH2; disulfide 3-8)
Inhibition of stimulated growth hormone release (percentile control) ([1]; 2 Hours): 92.79 percentile control
Inhibition of stimulated growth hormone release (percentile control) ([1]; 4 Hours): 63.85 percentile control
Inhibition of stimulated growth hormone release (percentile control) ([1]; 6 Hours): 67.78 percentile control
Inhibition of stimulated growth hormone release (percentile control) ([1]; 8 Hours): 68.26 percentile control
IC50 (somatostatin receptor): 120 pM

CC[C@@H]1NC(=O)[C@H](CCCCN)NC(=O)[C@@H](Cc2c[nH]c3ccccc23)NC(=O)[C@H](Cc2ccc(O)cc2)NC(=O)[C@@H](NC(=O)[C@@H](Cc2ccccc2)NC(=O)CNC(CO)(CO)CO)CSSC[C@@H](C(=O)N[C@H](C(N)=O)[C@@H](C)O)NC1=O [BIM-23182, (HO-CH2)3 -C-NH-CH2 -CO-D-Phe-c[Cys-Tyr-D-Trp-Lys-Abu-Cys]-Thr-NH2]
IC50 (somatostatin receptor): 120 pM

CC[C@@H]1NC(=O)[C@H](CCCCN)NC(=O)[C@@H](Cc2c[nH]c3ccccc23)NC(=O)[C@H](Cc2ccc(O)cc2)NC(=O)[C@@H](NC(=O)[C@@H](Cc2ccccc2)NC(=O)COC2=C(OCC(O)CO)C(=O)O[C@@H]2[C@@H](O)CO)CSSC[C@@H](C(=O)N[C@H](C(N)=O)[C@@H](C)O)NC1=O (stereo partly shown) [BIM-23183]
Cell growth (percent of control) [2]: 69.1% of control

CC[C@@H]1NC(=O)[C@H](CCCCN)NC(=O)[C@@H](Cc2c[nH]c3ccccc23)NC(=O)[C@H](Cc2ccc(O)cc2)NC(=O)[C@@H](NC(=O)[C@@H](Cc2ccccc2)NC(=O)CN2CCN(CCO)CC2)CSSC[C@@H](C(=O)N[C@H](C(N)=O)[C@@H](C)O)NC1=O [BIM-23190]
IC50 (somatostatin receptor): 200 pM

C[C@@H](O)[C@@H]1NC(=O)[C@H](CCCCN)NC(=O)[C@@H](Cc2c[nH]c3ccccc23)NC(=O)[C@H](Cc2ccc(O)cc2)NC(=O)[C@@H](NC(=O)[C@@H](Cc2ccccc2)NC(=O)CN2CCN(CCO)CC2)CSSC[C@@H](C(=O)N[C@@H](Cc2ccc3ccccc3c2)C(N)=O)NC1=O [BIM-23191] (X4-[dF]CY[dW]KTC[2Nal]-NH2; disulfide 2-7)
IC50 (somatostatin receptor): 80 pM

CC[C@@H]1NC(=O)[C@H](CCCCN)NC(=O)[C@@H](Cc2c[nH]c3ccccc23)NC(=O)[C@H](Cc2ccc(O)cc2)NC(=O)[C@@H](NC(=O)[C@@H](Cc2ccccc2)NCC(CO)(CO)CO)CSSC[C@@H](C(=O)N[C@H](C(N)=O)[C@@H](C)O)NC1=O [BIM-23195, (Ho-CH2)3 C-CH2 -D-Phe-C[Cys-Tyr-D-Trp-Lys-Abu-Cys]-Thr-NH2]
IC50 (somatostatin receptor): 80 pM

CC[C@@H]1NC(=O)[C@H](CCCCN)NC(=O)[C@@H](Cc2c[nH]c3ccccc23)NC(=O)[C@H](Cc2ccc(O)cc2)NC(=O)[C@@H](NC(=O)[C@@H](Cc2ccccc2)NS(=O)(=O)CCNC(CO)(CO)CO)CSSC[C@@H](C(=O)N[C@H](C(N)=O)[C@@H](C)O)NC1=O [BIM-23196]
IC50 (somatostatin receptor): 90 pM

CC[C@@H]1NC(=O)[C@H](CCCCN)NC(=O)[C@@H](Cc2c[nH]c3ccccc23)NC(=O)[C@H](Cc2ccc(O)cc2)NC(=O)[C@@H](NC(=O)[C@@H](Cc2ccccc2)NS(=O)(=O)CCN2CCN(CCO)CC2)CSSC[C@@H](C(=O)N[C@H](C(N)=O)[C@@H](C)O)NC1=O [BIM-23197]
IC50 (somatostatin receptor): 290 pM

C[C@@H](O)[C@@H]1NC(=O)[C@H](CCCCN)NC(=O)[C@@H](Cc2c[nH]c3ccccc23)NC(=O)[C@H](Cc2ccc(O)cc2)NC(=O)[C@@H](NC(=O)[C@@H](Cc2ccccc2)NCC(CO)(CO)CO)CSSC[C@@H](C(=O)N[C@@H](Cc2ccc3ccccc3c2)C(N)=O)NC1=O [BIM-23201, (HO-CH2)3 -C-CH2 -D-Phe-c[Cys-Tyr-D-Trp-Lys-Thr-Cys]-Nal-NH2] (H-[X2]CY[dW]KTC[2Nal]-NH2; disulfide 2-7)
IC50 (somatostatin receptor): 140 pM

CC[C@@H]1NC(=O)[C@H](CCCCN)NC(=O)[C@@H](Cc2c[nH]c3ccccc23)NC(=O)[C@H](Cc2ccc(O)cc2)NC(=O)[C@@H](NC(=O)[C@@H](Cc2ccccc2)NC(=O)CN2CCN(CCOCCO)CC2)CSSC[C@@H](C(=O)N[C@H](C(N)=O)[C@@H](C)O)NC1=O [BIM-23202]
IC50 (somatostatin receptor): 180 pM

C[C@H](N)C(=O)NCC(=O)N[C@H]1CSSC[C@@H](C(=O)O)NC(=O)[C@H](CO)NC(=O)[C@H]([C@@H](C)O)NC(=O)[C@H](Cc2ccccc2)NC(=O)[C@H]([C@@H](C)O)NC(=O)[C@H](CCCCN)NC(=O)[C@H](Cc2c[nH]c3ccccc23)NC(=O)[C@H](Cc2ccccc2)NC(=O)[C@H](Cc2ccccc2)NC(=O)[C@H](CC(N)=O)NC(=O)[C@H](CCCCN)NC1=O [SRIF-14, reference compound]
Cell growth (percent of control) [2]: 91.3% of control

CSCC[C@H](NC(=O)[C@H](C)NC(=O)[C@@H]1CCCN1C(=O)[C@H](CC(N)=O)NC(=O)[C@H](CO)NC(=O)[C@H](CC(N)=O)NC(=O)[C@H](C)NC(=O)[C@@H](N)CO)C(=O)N[C@@H](C)C(=O)N1CCC[C@H]1C(=O)N[C@@H](CCCNC(=N)N)C(=O)N[C@@H](CCC(=O)O)C(=O)N[C@@H](CCCNC(=N)N)C(=O)N[C@@H](CCCCN)C(=O)N[C@@H](C)C(=O)NCC(=O)N[C@H]1CSSC[C@@H](C(=O)O)NC(=O)[C@H](CO)NC(=O)[C@H]([C@@H](C)O)NC(=O)[C@H](Cc2ccccc2)NC(=O)[C@H]([C@@H](C)O)NC(=O)[C@H](CCCCN)NC(=O)[C@H](Cc2c[nH]c3ccccc23)NC(=O)[C@H](Cc2ccccc2)NC(=O)[C@H](Cc2ccccc2)NC(=O)[C@H](CC(N)=O)NC(=O)[C@H](CCCCN)NC1=O [SRIF-28, reference compound]
Cell growth (percent of control) [2]: 98.0% of control

D-Phe-c[Cys-Tyr-D-Trp-Lys-Thr-Cys]-Nal-NH2 [BIM-23060, reference compound]
Inhibition of stimulated growth hormone release (percentile control) ([1]; 2 Hours): 86.39 percentile control
Inhibition of stimulated growth hormone release (percentile control) ([1]; 4 Hours): 64.96 percentile control
Inhibition of stimulated growth hormone release (percentile control) ([1]; 6 Hours): 47.62 percentile control
Inhibition of stimulated growth hormone release (percentile control) ([1]; 8 Hours): 38.15 percentile control
